pEC50: −log10 of the molar value. Like-named read-outs stand apart in the source and are kept apart here.
Molecular target: T1, F508delCFTR (Homo sapiens, UniProt P13569, DEL508-508)
T1 construct: expressed in transfected cells; host or cells: CFBE41o- human lung-derived epithelial cells (CFBE4lo-F508delCFTR-HRP), doxycycline-inducible
Assay: Cell Surface Expression-Horse Radish Peroxidase (CSE-HRP) Assay;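 for Maximum % activity (with co-corrector): co-corrector and positive control are both the same reference corrector at 2 µM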;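 for Maximum % activity (without co-corrector): percent of the 2 µM on-plate positive control corrector response above DMSO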
Format: cell-based
Conditions: for Emax / Maximum % activity (with co-corrector): maximum at any tested concentration, normalized to on-plate positive control; for Emax: read-out: Maximum % activity (without co-corrector); for Maximum % activity (with co-corrector): with co-corrector (2 μM)

[1] = test compound without co-corrector
[2] = test compound without co-corrector, read-out: EC50 (without co-corrector)
[3] = with co-corrector (2 μM of 3-[(2R,4R)-4-({[1-(2,2-difluoro-1,3-benzodioxol-5-yl)cyclopropyl]carbonyl}amino)-7-methoxy-3,4-dihydro-2H-chromen-2-yl]benzoic acid), read-out: EC50 (with co-corrector)

T1 sequence (P13569 with tags, fused parts or gaps DEL508-508): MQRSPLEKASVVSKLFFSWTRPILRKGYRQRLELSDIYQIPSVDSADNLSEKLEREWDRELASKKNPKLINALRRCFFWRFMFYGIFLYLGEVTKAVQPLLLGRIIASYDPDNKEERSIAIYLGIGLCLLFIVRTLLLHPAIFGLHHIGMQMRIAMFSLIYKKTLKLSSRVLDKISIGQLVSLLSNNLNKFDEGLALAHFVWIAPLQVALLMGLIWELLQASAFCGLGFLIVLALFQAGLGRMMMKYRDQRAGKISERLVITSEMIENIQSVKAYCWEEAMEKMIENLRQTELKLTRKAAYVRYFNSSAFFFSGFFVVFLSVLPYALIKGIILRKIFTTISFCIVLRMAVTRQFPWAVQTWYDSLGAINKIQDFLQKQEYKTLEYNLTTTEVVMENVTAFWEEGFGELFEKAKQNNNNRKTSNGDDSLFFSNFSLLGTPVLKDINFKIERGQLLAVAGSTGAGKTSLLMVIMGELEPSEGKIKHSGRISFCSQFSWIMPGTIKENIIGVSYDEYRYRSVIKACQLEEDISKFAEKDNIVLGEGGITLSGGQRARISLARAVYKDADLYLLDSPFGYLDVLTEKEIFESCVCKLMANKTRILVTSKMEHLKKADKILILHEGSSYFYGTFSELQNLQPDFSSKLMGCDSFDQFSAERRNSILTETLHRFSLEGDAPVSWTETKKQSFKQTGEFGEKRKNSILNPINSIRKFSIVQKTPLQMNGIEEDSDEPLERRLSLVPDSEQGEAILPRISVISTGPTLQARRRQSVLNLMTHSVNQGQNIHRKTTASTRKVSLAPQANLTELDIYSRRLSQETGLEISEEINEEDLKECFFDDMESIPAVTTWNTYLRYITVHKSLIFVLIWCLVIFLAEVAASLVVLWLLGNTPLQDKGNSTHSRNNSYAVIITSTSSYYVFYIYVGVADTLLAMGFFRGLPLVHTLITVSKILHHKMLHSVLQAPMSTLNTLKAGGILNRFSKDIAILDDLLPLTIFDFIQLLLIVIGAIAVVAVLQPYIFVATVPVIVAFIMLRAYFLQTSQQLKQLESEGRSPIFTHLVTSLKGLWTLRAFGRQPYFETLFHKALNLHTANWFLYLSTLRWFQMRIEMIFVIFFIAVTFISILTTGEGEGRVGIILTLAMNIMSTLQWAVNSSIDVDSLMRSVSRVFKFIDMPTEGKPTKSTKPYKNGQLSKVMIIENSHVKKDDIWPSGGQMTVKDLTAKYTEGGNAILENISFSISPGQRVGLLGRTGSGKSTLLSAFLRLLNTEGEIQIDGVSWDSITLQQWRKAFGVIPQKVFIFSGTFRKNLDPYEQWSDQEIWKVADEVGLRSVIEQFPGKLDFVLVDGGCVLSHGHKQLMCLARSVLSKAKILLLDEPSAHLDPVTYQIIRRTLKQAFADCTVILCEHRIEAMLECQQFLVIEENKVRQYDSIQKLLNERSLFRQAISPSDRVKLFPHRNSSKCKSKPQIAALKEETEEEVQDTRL

Row | Compound | Emax [1] | pEC50 [2] | pEC50 [3] | Maximum % activity (with co-corrector)
1 | CCC(CC)Cc1ccc(OC)c(CN[C@H]2[C@H](C(C)(C)C)[C@@H](C(=O)O)N(C(=O)C3CCCCC3)[C@H]2c2ccccc2)c1 [III-170] | > 200% | > 6.00 | > 6.00 | +++ (≥350)
2 | COc1ccc(C(C)c2ccccc2)cc1CN[C@H]1[C@H](C(C)(C)C)[C@@H](C(=O)O)N(C(=O)C2CCCCC2)[C@H]1c1ccccc1 (some centres unmarked) [III-171] | > 200% | 5.00 to 6.00 | > 6.00 | +++ (≥350)
3 | COc1ccc(C(C)(C)C)cc1CN[C@H]1[C@H](C(C)(C)C)[C@@H](C(=O)O)N(C(=O)Cc2ccc(F)c(F)c2)[C@H]1c1ccccc1 [III-172] | 100 to 200% | 5.00 to 6.00 | > 6.00 | +++ (≥350)
4 | COc1ccc(C(C)(C)C)cc1CN[C@H]1[C@H](C(C)(C)C)[C@@H](C(=O)O)N(C(=O)Cc2ccc(F)cc2F)[C@H]1c1ccccc1 [III-173] | > 200% | 5.00 to 6.00 | > 6.00 | +++ (≥350)
5 | COc1ccc(C(C)(C)C)cc1CN[C@H]1[C@H](C(C)(C)C)[C@@H](C(=O)O)N(C(=O)C2CCC(C)CC2)[C@H]1c1ccccc1 (some centres unmarked) [III-174] | > 200% | > 6.00 | > 6.00 | +++ (≥350)
6 | COc1ccc(C(C)(C)C)cc1CN[C@H]1[C@H](C(C)(C)C)[C@@H](C(=O)O)N(C(=O)C2CCCC(C)C2)[C@H]1c1ccccc1 (some centres unmarked) [III-175] | > 200% | > 6.00 | > 6.00 | +++ (≥350)
7 | COc1ccc(C(C)(C)C)cc1CN[C@H]1[C@H](C(C)(C)C)[C@@H](C(=O)O)N(C(=O)c2cn(C)cc(C)c2=O)[C@H]1c1ccccc1 [III-176] | < 100% | < 5.00 | < 5.00 | + (<150)
8 | COc1ccc(C(C)(C)C)cc1CN[C@H]1[C@H](C(C)(C)C)[C@@H](C(=O)O)N(C(=O)c2cn(C)c3ccccc23)[C@H]1c1ccccc1 [III-177] | < 100% | 5.00 to 6.00 | 5.00 to 6.00 | ++ (≥150 and <350)
9 | COc1ccc(C(C)(C)C)cc1CN[C@H]1[C@H](C(C)(C)C)[C@@H](C(=O)O)N(C(=O)c2cc(F)cc3c2OCOC3)[C@H]1c1ccccc1 [III-178] | 100 to 200% | 5.00 to 6.00 | 5.00 to 6.00 | +++ (≥350)
10 | COc1ccc(C(C)(C)C)cc1CN[C@H]1[C@H](C(C)(C)C)[C@@H](C(=O)O)N(C(=O)C2CCOC(C(C)C)C2)[C@H]1c1ccccc1 (some centres unmarked) [III-179] | > 200% | 5.00 to 6.00 | > 6.00 | +++ (≥350)
11 | CC(C)(C)[C@H]1[C@H](NCc2cc3ccccc3nc2O)[C@H](c2ccccc2)N(C(=O)C2CCCCC2)[C@@H]1C(=O)O [III-180] | < 100% | < 5.00 | 5.00 to 6.00 | ++ (≥150 and <350)
12 | COc1ccc(C23CC4CC(CC(C4)C2)C3)cc1CN[C@H]1[C@H](C(C)(C)C)[C@@H](C(=O)O)N(C(=O)C2CCCCC2)[C@H]1c1cccnc1N(C)C [III-183] | > 200% | > 6.00 | > 6.00 | +++ (≥350)
13 | COc1ccc(C(F)(F)F)cc1CN[C@H]1[C@H](C(C)(C)C)[C@@H](C(=O)O)N(C(=O)[C@H]2CCCC(F)(F)C2)[C@H]1c1ccccc1 [III-185] | < 100% | 5.00 to 6.00 | 5.00 to 6.00 | ++ (≥150 and <350)
14 | COc1ccc(-c2cnn(C)c2)cc1CN[C@H]1[C@H](C(C)(C)C)[C@@H](C(=O)O)N(C(=O)C2CCCCC2)[C@H]1c1ccccc1 [III-186] | < 100% | 5.00 to 6.00 | 5.00 to 6.00 | ++ (≥150 and <350)
15 | COc1ccc(-c2cnn(C3CC3)c2)cc1CN[C@H]1[C@H](C(C)(C)C)[C@@H](C(=O)O)N(C(=O)C2CCCCC2)[C@H]1c1ccccc1 [III-187] | < 100% | 5.00 to 6.00 | 5.00 to 6.00 | ++ (≥150 and <350)
16 | COc1ncc(C(F)(F)F)cc1CN[C@H]1[C@H](C2(C)CC2)[C@@H](C(=O)O)N(C(=O)C2CCCCC2)[C@H]1c1ccccc1 [III-189] | < 100% | 5.00 to 6.00 | 5.00 to 6.00 | ++ (≥150 and <350)
17 | COc1ccc(C(C)(C)C)cc1CN[C@H]1[C@H](C(C)(C)C)[C@@H](C(=O)O)N(C(=O)C(C)Oc2cc(C)cc(C)c2)[C@H]1c1ccccc1 (some centres unmarked) [III-190] | > 200% | 5.00 to 6.00 | > 6.00 | +++ (≥350)
